Source: US6087121A, “Chemiluminescent detection of heme proteins in biological samples” (Mayo Foundation for Medical Education and Research, priority 1999, dated 2000)
“Also recorded” adds a separate entry of the source. Where two headings read alike, the source gives them in different places.

Assays:
[1] = target: T1, MPO (Homo sapiens, UniProt P05164); assay: Effects of potential interfering substances in WBC (MPO, PS-1) assay; format: biochemical; details: highest tested: uric acid 1 mg/mL, ascorbic acid 100 μg/mL, bilirubin 50 μg/mL, trolox 1 mg/mL
T1 sequence (P05164 49-745): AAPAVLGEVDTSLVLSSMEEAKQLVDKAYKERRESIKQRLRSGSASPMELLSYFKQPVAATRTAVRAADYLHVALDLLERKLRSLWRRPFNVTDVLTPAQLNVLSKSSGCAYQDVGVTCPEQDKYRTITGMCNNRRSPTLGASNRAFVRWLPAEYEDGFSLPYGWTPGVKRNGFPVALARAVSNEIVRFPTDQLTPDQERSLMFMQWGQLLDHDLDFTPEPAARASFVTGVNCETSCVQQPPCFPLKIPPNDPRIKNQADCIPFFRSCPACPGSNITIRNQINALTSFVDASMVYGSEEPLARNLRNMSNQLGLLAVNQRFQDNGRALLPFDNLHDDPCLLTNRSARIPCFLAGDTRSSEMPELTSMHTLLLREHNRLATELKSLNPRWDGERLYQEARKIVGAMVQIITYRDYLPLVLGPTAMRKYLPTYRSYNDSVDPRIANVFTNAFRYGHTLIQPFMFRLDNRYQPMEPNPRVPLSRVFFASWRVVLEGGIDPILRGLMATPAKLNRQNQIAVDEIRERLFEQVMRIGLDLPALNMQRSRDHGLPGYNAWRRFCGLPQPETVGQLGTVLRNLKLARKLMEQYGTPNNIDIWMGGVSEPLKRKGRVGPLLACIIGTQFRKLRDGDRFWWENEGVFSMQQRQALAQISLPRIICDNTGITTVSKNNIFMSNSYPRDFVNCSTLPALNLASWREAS
Protocol: (§1) Urine samples were diluted 1:4 into distilled water to minimize inhibitory effects observed with hyperosmolal urines. Two μL of diluted urine were added to 12×75 mm polystyrene test tube containing 50 μL of the PS-1 solution. The tubes were incubated at 37° C. for 5 minutes. MPO activity was determined by chemiluminescence emission using a Turner TD-20e luminometer maintained at 37° C. Leukocyte counting was performed manually by using a hemacytometer chamber (Kova Glasstic slide, Hycor, Irvine, Calif.) on each urine sample to determine the number of cells/mL.
Several possible interfering substances were added to urine and tested for inhibitory effects. Several common medications were also tested for potential inhibitory effects. […] Hb at concentrations of >10 μg/mL and Mb at concentrations >2 μg/mL were detected by the PS-1 substrate as the chemiluminescence emission was above the normal urine background. Samples grossly populated with bacteria caused slight inhibition of the MPO activity. Urine samples may contain many epithelial cells, casts, crystals, and numerous artifacts but none of these appear to interfere with the chemiluminescence emission from MPO.

[2] = target: T1, MPO; assay: Drug interferences with MPO (PS-1 assay in urine); format: biochemical; details: for inhibition at 0.001 µg/mL: 1 ng/mL
Protocol: as §1
Several possible interfering substances were added to urine and tested for inhibitory effects. Several common medications were also tested for potential inhibitory effects.

[3] = system: Hb; assay: Interference studies in Hb assay (7-DNH chemiluminescence); format: biochemical, human; details: for Level of Interference (in words): highest conc: ascorbic acid 10, bilirubin 10, Cu++/Mn++ 40, sodium azide 500 μg/mL, uric acid 1 mg/mL; for Level of Interference: level producing a signal equivalent to 3 RBC per high power field, fixed Hb concentration
Protocol: Numerous potential interfering substances, which either enhance or quench the signal generated by cyclic hydrazides, were evaluated. The effects of these potentially interfering substances on light emission was investigated at varying concentrations of the interfering composition. Assays were performed using serial dilutions of the potential interfering compositions in ultrafiltered urine at a fixed concentration of Hb. Comparisons of chemiluminescence emission were made between a reference solution (Hb in ultrafiltered urine) without added interfering compositions and solutions with added interferant.
Generally, the value of 3 RBC per high power field is the normal cutoff point.
Bilirubin and uric acid were examined as a possible negative interfering compositions because of their chemical structure which may quench energy emitted.

[4] = system: Hb; assay: S/N ratios of different chemiluminescent substrates with Hb; format: biochemical, human; details: signal integrated over first five seconds
Protocol: (§2) Centricon ultrafiltration filters were obtained from Amicon (Daven, Mass.). Polystyrene tubes (5.0 mL volume, 75×12 mm) used for the assay were manufactured by Sarstedt (Arlington Heights, Ill.). The chemiluminescent substrate, 7-dimethylamino-naphthalene-1,2-dicarbonic acid-hydrazide (7-DNH) was purchased from Boehringer Mannheim (Indianapolis, Ind.). PS-1 acridan substrate (solution A and solution B) was obtained from Lumigen Inc. (Southfield, Mich.). […] Tween-20 and Sodium Chloride were purchased from Fisher Scientific (Fair Lawn, N.J.). General laboratory chemicals such as, boric acid, sodium acetate, Trizma base, HEPES, hydrogen peroxide (H2 O2) solution (30.0%), human hemoglobin, catalase, 6-amino-2,3-dihydro-1,4-phthallazinedione (4-aminophthalhydrazide), N-(4-Aminobutyl)-N-ethyl-isoluminol, Triton X-100, (3-[3-cholamidopropyl)dimethylammonio]-1-propanesulfonate) (CHAPS), hydrogen disulfite, methimazole, ofloxacin, ascorbic acid, ammonium chloride, EDTA, Hb, bilirubin, and lactoperoxidase (LPO) were purchased from Sigma Chemical Company (St. Louis, Mo.). Human heart myoglobin and myeloperoxidase were obtained from Calbiochem (La Jolla, Calif.) Thyroid peroxidase (TPO) was purchased from O.E.M. Concepts, Inc. (Toms River, N.J.). Eosinophil peroxidase was provided by Dr. Greipp (Mayo Clinic). Fresh EDTA anticoagulated blood was collected from donors showing no signs of sickness and washed with physiological saline to isolate RBC.
(§3) Fresh urine specimens were obtained in routine commercial collection vessels. The specimens were, either, analyzed immediately or stored at 4° C. until analysis. The urine samples were prepared for analysis by adding CTAC to produce a 0.1% solution, unless otherwise noted, in order to lyse the erythrocytes, thereby releasing hemoglobin. The assays were performed in a 75×12 mm polystyrene tube. The assay solutions were prepared by adding to each tube 294 μL of high ionic strength buffer, 5.0 μL of the prepared urine samples or standards, and […] of substrate (0.4 mM solution of 7-DNH), unless otherwise noted. […] The standard curve was obtained by plotting chemiluminescence emission in Relative Light Units (RLU) versus Hb concentration (μg/mL) or number of RBCs (#RBC/high power field (hpf)). Cell counts were determined with the Yellow Iris® instrument and confirmed by a manual hemocytometer count.
(§4) The substrate (7-DNH) and the ultrafiltered urine were prepared as described above. The kinetics of chemiluminescence was determined by monitoring the chemiluminescence signal over a 20 second time period following addition of the substrate (7-DNH) to ultrafiltered urine. Measurements were performed either in the presence or absence of Hb. Experiments performed in the absence of Hb provide background measurements in relative light units (RLU).

[5] = system: Mb; assay: S/N ratios of different chemiluminescent substrates with Mb; format: biochemical, human; details: signal integrated over first five seconds
Protocol: as §2, §3
as §4, with “Experiments performed in the absence of Hb provide background measurements in relative light units (RLU).” left out

[6] = system: Hb; assay: Effects of detergents on chemiluminescence emission in Hb assay; format: biochemical, human
Protocol: Increasing concentrations of Hb were assayed with equal concentrations of different detergents to assess the effectiveness of the detergents at enhancing chemiluminescence emission. The effectiveness of the detergents was also compared at different time periods and varying concentrations. The ultrafiltered urine was assumed to contain neither Hb nor Mb and was used as the blank to assess background chemiluminescence emission with the substrate.

Molecule: Cc1c(C)c2c(c(C)c1O)CCC(C)(C(=O)O)O2 (stereo not shown) [Trolox]
- Interference (in words) [1]: None
- Interference (in words) ([1]; listed as trolox): did not affect assay performance

Molecule: Cn1c(=O)c2[nH]cnc2n(C)c1=O [Theophyllin]
- % Inhibition of MPO ([2]; 100 μg/mL): 11%

Molecule: C=CC1=C(C)/C(=C/c2[nH]c(Cc3[nH]c(/C=C4\NC(=O)C(C)=C4C=C)c(C)c3CCC(=O)O)c(CCC(=O)O)c2C)NC1=O [Bilirubin, bilirubin]
- Level of Interference (in words) [3]: None
- Level of Interference (in words) ([3]; listed as bilirubin): did not interfere
- Interference (in words) [1]: None
- Interference (in words) ([1]; listed as bilirubin): did not affect assay performance

Molecule: Nc1ccc2c(=O)[nH][nH]c(=O)c2c1 [Isoluminol, 6-amino-2,3-dihydro-1,4-phthallazinedione]
- S/N for Hb [4]: 3
- S/N for Mb [5]: 5

Molecule: CC(C(=O)O)c1cccc(C(=O)c2ccccc2)c1 (stereo not shown) [Ketoprofyn]
- inhibition at 100 mg/day ([2]; read-out: % Inhibition of MPO): 10%

Molecule: Cn1c(=O)c2[nH]cnc2n(C)c1=O [Aminophyllin]
- % Inhibition of MPO ([2]; 100 μg/mL): 4%

Molecule: Catalase
- Level of Interference (in words) [3]: only interfere at very high concentrations
- Level of Interference [3]: > 7.8 µg/mL

Molecule: O=c1[nH]c(=O)c2[nH]c(=O)[nH]c2[nH]1 [Uric Acid, uric acid]
- Level of Interference (in words) [3]: None
- Level of Interference (in words) ([3]; listed as Uric acid): did not interfere
- Interference (in words) [1]: None
- Interference (in words) ([1]; listed as uric acid): did not affect assay performance

Molecule: C[C@]12CC[C@@H]3c4ccc(O)cc4CC[C@H]3[C@@H]1CC[C@@H]2O [Estradiol]
- inhibition at 0.001 µg/mL [2]: 20%

Molecule: Eosinophil peroxidase: Eosinophil peroxidase was provided by Dr. Greipp (Mayo Clinic)
- Level of Interference (in words) [3]: only interfere at very high concentrations
- Level of Interference [3]: > 0.007 µg/mL

Molecule: CN(C)CCC=C1c2ccccc2CCc2ccccc21 [Amitriptylene]
- inhibition at 100 µg/mL ([2]; 100 μg/mL, read-out: % Inhibition of MPO): 75%

Molecule: COc1ccc2cc([C@H](C)C(=O)O)ccc2c1 [Naprosyn]
- inhibition at 800 mg/day ([2]; read-out: % Inhibition of MPO): 5%

Molecule: CCN(CCCCN)c1ccc2c(=O)[nH][nH]c(=O)c2c1 [ABEI, N-(4-Aminobutyl)-N-ethyl-isoluminol]
- S/N for Hb [4]: 3
- S/N for Mb [5]: 6

Molecule: Nc1cccc2c(=O)[nH][nH]c(=O)c12 [Luminol]
- S/N for Hb [4]: 89
- S/N for Mb [5]: 73

Molecule: C[C@]12CC[C@@H]3c4ccc(O)cc4CC[C@H]3[C@@H]1C[C@@H](O)[C@@H]2O [Estriol]
- inhibition at 0.001 µg/mL [2]: 15%

Molecule: [N-]=[N+]=[N-] [Sodium Azide, sodium azide]
- Level of Interference (in words) [3]: None
- Level of Interference (in words) ([3]; listed as sodium azide): did not interfere

Molecule: C[C@]12C=CC(=O)C=C1CC[C@@H]1[C@@H]2[C@@H](O)C[C@@]2(C)[C@H]1CC[C@]2(O)C(=O)CO [Prednisolone]
- inhibition at 100 µg/mL ([2]; read-out: % Inhibition of MPO): 13%

Molecule: CCCCCCCCCCCCCCCC[N+](C)(C)C.[Cl-] [CTAC, cetyltrimethyl-ammonium chloride]
- enhancement of chemiluminescence signal ([6]; 7-DNH, various Hb concentrations): highest chemiluminescence signal
- optimal concentration for enhancement of signal ([6]; dose-dependent enhancement, FIG. 4B): 0.1%

Molecule: Superoxide dismutase
- Level of Interference [3]: > 125 µg/mL

Molecule: O=C1O[C@H]([C@@H](O)CO)C(O)=C1O [Ascorbic Acid, ascorbic acid]
- Level of Interference (in words) [3]: None
- Level of Interference (in words) ([3]; listed as ascorbic acid): did not interfere; also recorded: did not have an inhibitory effect on the reaction
- Interference (in words) [1]: None
- Interference (in words) ([1]; listed as ascorbic acid): did not affect assay performance
